Measurements published in US11415579B2, “Assay for measuring a rate of reaction between a target and a ligand candidate” (Imperial College Innovations Ltd., priority 2016, dated 2022).

Assays:
Cdk2(N272C) (C177A) = molecular target: T1, Cdk2(N272C) (C177A) (Homo sapiens, UniProt P24941, C177A/N272C); assay: Kinetic thiol consumption assay with Cdk2 mutant N272C; assay type: binding; design: key to Rate enhancement, Cdk2 N272: rate constant with Cdk2 ÷ rate constant with model thiol (fold); settings: for Rate enhancement, Cdk2 N272: Cdk2 N272, additional mutation C177A; for Rate constant with Cdk2 N272C: Protein: Cdk2, cysteine position N272C, additional mutation C177A, in h^-1
T1 construct: poly-histidine; made in house; host or cells: E. coli
In short: (§1)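 His-tagged single-surface-cysteine Cdk2 mutants (C177A background) from E. coli, 5 μM in degassed phosphate buffer pH 8, pre-treated with immobilized TCEP beads. Fluorescence (ex/em 380/470 nm) read after 1 h at room temperature, normalized to DMSO/thiol-only control; first-order decay fits gave rate constants, divided by model-thiol rate for rate enhancement.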

[1] = Kinetic thiol consumption assay with model thiol glutathione; assay type: physicochemical; design: Rate constant with glutathione (k(GSH)): unit not given here; settings: for Rate constant with glutathione (k(GSH)): 500 μM ligand, 5 μM thiol, phosphate buffer pH 8; for Rate constant with Glutathione: Protein: Glutathione, cysteine position NA, in h-1
In short: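 First, 5 μM glutathione in degassed phosphate buffer (pH 8) receives immobilized TCEP beads (2% v/v). Then acrylamide is added and plates incubate 1 h at room temperature. Finally, fluorescence (380/470 nm) is normalized and fitted to first-order decay for rate constants.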

Cdk2[C177A, F80C, K278C] = molecular target: T2, Cdk2[C177A, F80C, K278C] (Homo sapiens, UniProt P24941, C177A/F80C/K278C); assay: Kinetic thiol consumption assay with mutant Cdk2 as model thiol; assay type: binding; design: unit not given here; settings: 500 μM ligand, 5 μM thiol, phosphate buffer pH 8
T2 construct: poly-histidine; made in house; host or cells: E. coli
In short: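 Model thiol: His-tagged human Cdk2 C177A/F80C/K278C (two engineered surface cysteines), E. coli-expressed, 5 μM in degassed phosphate buffer pH 8 with immobilized TCEP beads (2% v/v). Fluorescence (ex/em 380/470 nm) followed over time at room temperature, normalized to DMSO/thiol control. First-order decay fit gives rate constants.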

Cdk2(S276C) (C177A) = molecular target: T3, Cdk2(S276C) (C177A) (Homo sapiens, UniProt P24941, C177A/S276C); assay: Kinetic thiol consumption assay with Cdk2 mutant S276C; assay type: binding; design: key to Rate enhancement, Cdk2 S276C: rate constant with Cdk2 ÷ rate constant with model thiol (fold); settings: additional mutation C177A; for Rate constant with Cdk2 S276C: Protein: Cdk2, cysteine position S276C, in h^-1
T3 construct: poly-histidine; made in house; host or cells: E. coli
In short: as §1

[2] = molecular target: T4, human cyclin-dependent kinase 2 (Cdk2) (Homo sapiens, UniProt P24941); assay: Kinetic thiol consumption assay with wild type Cdk2 (C177); assay type: binding; design: key to Rate enhancement, Cdk2 WT: k(Cdk2) divided by k(model thiol); Rate constant with Cdk2 (k(Cdk2)): unit not given here; settings: for Rate constant with Cdk2 (k(Cdk2)): 500 μM ligand, 5 μM thiol, phosphate buffer pH 8; for Rate enhancement, Cdk2 WT: no additional mutations; for Rate constant with Cdk2 WT: Protein: Cdk2, cysteine position WT, in h^-1; for k(Cdk2)/k(Cdk2_mut) rate enhancement: model thiol Cdk2[C177A, F80C, K278C]; for k(Cdk2)/k(GSH) rate enhancement: model thiol glutathione
T4 construct: poly-histidine; made in house; host or cells: E. coli
In short: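 Rate constants came from first-order exponential decay fits of normalized fluorescence against time, with thiol (5 μM) in degassed pH 8 phosphate buffer containing 2% v/v TCEP beads and reads after 1 h at room temperature.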

Cdk2(C177A, F80C) = molecular target: T5, Cdk2(C177A, F80C) (Homo sapiens, UniProt P24941, C177A/F80C); assay: Kinetic thiol consumption assay with Cdk2 mutant F80C, incl. kobs versus concentration (Kd, k2); assay type: binding; design: key to Rate enhancement, Cdk2 F80C: Cdk2 rate constant divided by model-thiol rate constant; settings: additional mutation C177A; for Rate constant with Cdk2 F80C: Protein: Cdk2, cysteine position F80C, in h^-1
T5 construct: poly-histidine; made in house; host or cells: E. coli
In short: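 His-tagged Cdk2(C177A/F80C) from E. coli or model thiol, 5 μM in degassed phosphate buffer pH 8 with TCEP beads, reacted with acrylamide ligands; fluorescence (ex/em 380/470 nm) normalized to DMSO control and fitted to first-order decay for kobs. Kd and k2 obtained from hyperbolic fit of kobs versus ligand concentration.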

Cdk2(T182C) (C177A) = molecular target: T6, Cdk2(T182C) (C177A) (Homo sapiens, UniProt P24941, C177A/T182C); assay: Kinetic thiol consumption assay with Cdk2 mutant T182C; assay type: binding; design: key to Rate enhancement, Cdk2 T182C: rate constant with Cdk2 ÷ rate constant with model thiol (fold); settings: additional mutation C177A; for Rate constant with Cdk2 T182C: Protein: Cdk2, cysteine position T182C, in h^-1
T6 construct: poly-histidine; made in house; host or cells: E. coli
In short: as §1

Cdk2(R122C) (C177A) = molecular target: T7, Cdk2(R122C) (C177A) (Homo sapiens, UniProt P24941, C177A/R122C); assay: Kinetic thiol consumption assay with Cdk2 mutant R122C; assay type: binding; design: key to Rate enhancement, Cdk2 R122C: rate constant with Cdk2 ÷ rate constant with model thiol (fold); settings: additional mutation C177A; for Rate constant with Cdk2 R122C: Protein: Cdk2, cysteine position R122C, in h-1
T7 construct: poly-histidine; made in house; host or cells: E. coli
In short: as §1

Cdk2(H71C) (C177A) = molecular target: T8, Cdk2(H71C) (C177A) (Homo sapiens, UniProt P24941, C177A/H71C); assay: Kinetic thiol consumption assay with Cdk2 mutant H71C; assay type: binding; design: key to Rate enhancement, Cdk2 H71C: rate constant with Cdk2 ÷ rate constant with model thiol (fold); settings: additional mutation C177A; for Rate constant with Cdk2 H71C: Protein: Cdk2, cysteine position H71C, in h^-1
T8 construct: poly-histidine; made in house; host or cells: E. coli
In short: as §1

Cdk2(S181C) (C177A) = molecular target: T9, Cdk2(S181C) (C177A) (Homo sapiens, UniProt P24941, C177A/S181C); assay: Kinetic thiol consumption assay with Cdk2 mutant S181C; assay type: binding; design: key to Rate enhancement, Cdk2 S181C: rate constant with Cdk2 ÷ rate constant with model thiol (fold); settings: additional mutation C177A; for Rate constant with Cdk2 S181C: Protein: Cdk2, cysteine position S181C, in h^-1
T9 construct: poly-histidine; made in house; host or cells: E. coli
In short: as §1

Row | SMILES | Rate enhancement, Cdk2 N272 (Cdk2(N272C) (C177A)) | Rate constant with Cdk2 N272C (Cdk2(N272C) (C177A)) | Rate constant with glutathione (k(GSH)) [1] | Rate constant with Glutathione [1] | Rate constant with Cdk2[C177A, F80C, K278C] (k(Cdk2_mut)) (Cdk2[C177A, F80C, K278C]) | Rate enhancement, Cdk2 S276C (Cdk2(S276C) (C177A)) | Rate constant with Cdk2 S276C (Cdk2(S276C) (C177A)) | Rate constant with Cdk2 (k(Cdk2)) [2] | Rate enhancement, Cdk2 WT [2] | Rate constant with Cdk2 WT [2] | k(Cdk2)/k(Cdk2_mut) rate enhancement [2] | k(Cdk2)/k(GSH) rate enhancement [2] | Rate enhancement, Cdk2 F80C (Cdk2(C177A, F80C)) | Rate enhancement, Cdk2 T182C (Cdk2(T182C) (C177A)) | Rate constant with Cdk2 T182C (Cdk2(T182C) (C177A)) | Rate enhancement, Cdk2 R122C (Cdk2(R122C) (C177A)) | Rate constant with Cdk2 R122C (Cdk2(R122C) (C177A)) | Rate enhancement, Cdk2 H71C (Cdk2(H71C) (C177A)) | Rate constant with Cdk2 H71C (Cdk2(H71C) (C177A)) | Rate enhancement, Cdk2 S181C (Cdk2(S181C) (C177A)) | further results
1 | C=CC(=O)N(C)C1CC(OCC)C12CCC2 (stereo not shown) [CA-048] | 0.5442 | 0.01029 | 0.01364 | 0.01891 | 0.00791 | 0.779 | 0.01473 | 0.01116 | 0.7118 | 0.01346 | 1.41 | 0.8182 | 0.8022 | 2.645 | 0.05001 | 0.2023 | 0.003826 | 0.2331 | 0.004408 | 0.6029 | Rate constant with Cdk2 F80C (Cdk2(C177A, F80C)): 0.01517; Rate constant with Cdk2 S181C (Cdk2(S181C) (C177A)): 0.0114
2 | C=CC(=O)N1C(C(=O)c2ccccc2)C1c1ccccc1 (stereo not shown) [CA-53] | 1.415 | 0.006086 | 0.00428 | 0.004301 | 0.00547 | 1 | 0.004301 | 0.00097 | 0.2251 | 0.000968 | 0.177 | 0.226 | 2.22 | 13.66 | 0.05877 | 1.018 | 0.004377 | 1.165 | 0.005009 | 14.88 | Rate constant with Cdk2 F80C (Cdk2(C177A, F80C)): 0.009547; Rate constant with Cdk2 S181C (Cdk2(S181C) (C177A)): 0.06402
3 | C=CC(=O)Nc1ccc2c(c1)OC1(CCCC1)O2 [CA-054] | 1.248 | 0.005397 | 0.00434 | 0.004326 | 0.04027 | 0.9498 | 0.004109 | 0.00267 | 0.6163 | 0.002666 | 0.0662 | 0.614 | 1.482 | 1.059 | 0.004582 | 0.4198 | 0.001816 | 1.023 | 0.004426 | 0.4697 | Rate constant with Cdk2 F80C (Cdk2(C177A, F80C)): 0.006411; Rate constant with Cdk2 S181C (Cdk2(S181C) (C177A)): 0.002032
4 | C=CC(=O)NC1C2CC3CC(C2)CC1C3 (stereo not shown) [CA-055] | 4.591 | 0.01093 | 0.00243 | 0.002381 | 0.00101 | 0.6972 | 0.00166 | 0.0007 | 0.4066 | 0.0009681 | 0.6937 | 0.2881 | 0 | 0.2621 | 0.0006241 | 0.4288 | 0.001021 | 0.4859 | 0.001157 | 1.073 | Rate constant with Cdk2 S181C (Cdk2(S181C) (C177A)): 0.002556
5 | C=CC(=O)N1CCc2sccc2C1c1cccs1 (stereo not shown) [CA-056] | 1.548 | 0.02696 | 0.0174 | 0.01742 | 0.1361 | 1.776 | 0.03094 | 0.02004 | 1.15 | 0.02004 | 0.1472 | 1.152 | 4.984 | 18.35 | 0.3197 | 0.7819 | 0.01362 | 1.254 | 0.02185 | 2.069 | Rate constant with Cdk2 F80C (Cdk2(C177A, F80C)): 0.08682; Rate constant with Cdk2 S181C (Cdk2(S181C) (C177A)): 0.03604
